This note sets out measurements from patent US20060025474A1, “Bisphenyl compounds useful as vitamin D3 receptor agonists” (priority 2004, published 2006).

The subject of the data set is ECAC2 mRNA in Caco-2 cells. In kind it is cell-based. As to the method:
The mRNA Expression Assay of ECAC2 in Caco-2 Cells
The dispersed cells were plated in 48-well plate at a concentration of 6.3×10^4 cells/well and incubated for 4 days at 37° C. The culture medium (Dulbecco's Modified Eagle Medium (D-MEM) without NaHCO3 with 44 mM NaHCO3, 1 mM non-essential amino acids, and 2 mM L-glutamine, 90%; fetal bovine serum, 10%) was then replaced with the same medium containing various concentrations of LG190178 (the compound disclosed in WO00/10958 and the corresponding U.S. Pat. No. 6,218,430 B1) or the compounds of the present invention, and cells were cultured for 1 day at 37° C. The culture medium containing the compounds was changed twice per day.
Total RNA Isolation from Caco-2 Cell
Total RNA was isolated from Caco-2 cell following ABI PRISM™ 6100 Nucleic Acid PrepStation protocol from Applied Biosystems.
Real Time RT-PCR Assay of ECAC2
ECAC2 mRNA expression was determined using TaqMan One-step RT-PCR Master Mix Reagents Kit and PRISM7000 systems from Applied Biosystems.
Primer information and cycle conditions are 1)ECAC2, forward 5′-[…]-3′, reverse 5′-GTCCTCTGTCTGGMGATGA-3′, Taqman probe 5′-[…]-3′, 55 cycles, annealing temperature (Ta)=60° C.; 2)GAPDH, forward 5′-GMGGTGMGGTCGGAGTC-3′, reverse 5′-GMGATGGTGATGGGATTTC-3′, Taqman probe 5′-[…]-3′, 55 cycles, Ta=60° C. ECAC2 mRNA values were normalized for the expression of GAPDH mRNA within each sample.
Comparison of ECAC2 mRNA Value
The EC50 values of ECAC2 mRNA values were analyzed by Emax models. The ECAC2 mRNA ratio was calculated as the ratio of the EC50 value of the compounds to that of LG190178. ECAC2 is a channel-like transporter mediating intestinal calcium absorption. It is described in J Biol Chem. Aug. 6, 1999; 274(32):22739-46 for example.

`CCc1cc(C(CC)(CC)c2ccc(C(=O)N[C@H](C)C(=O)O)s2)ccc1OCC(C)(O)C(C)(C)C` (single isomer, unassigned) [Compound A, reference compound]: the “ECaC-2 mRNA induction activity in Caco-2 cells” value (shortened to “ECaC-2 mRNA induction activity”) worked out at 123%. As for `CCc1cc(C(CC)(CC)c2ccc(C(=O)N[C@H](C)C(=O)O)s2)ccc1OCC(C)(O)C(C)(C)C` (single isomer, unassigned) [Compound B, reference compound], the “ECaC-2 mRNA induction activity” value was 15%. In the case of `CCc1cc(C(CC)(CC)c2ccc(C(=O)N[C@@H](C)C(=O)O)s2)ccc1OCC(C)(O)C(C)(C)C` (single isomer, unassigned) [Compound C, reference compound], the “ECaC-2 mRNA induction activity” value amounted to 34%.

As to `CCc1cc(C(CC)(CC)c2ccc(C(=O)N[C@@H](C)C(=O)O)s2)ccc1OCC(C)(O)C(C)(C)C` (single isomer, unassigned) [Compound D, reference compound], the “ECaC-2 mRNA induction activity” value came to 14%. For the compound `C=C1/C(=C\C=C2/CCC[C@]3(C)[C@@H]([C@H](C)CCCC(C)(C)O)CC[C@@H]23)C[C@@H](O)C[C@@H]1O` [1,25(OH)2D3, reference compound], the “ECaC-2 mRNA induction activity” value is reported as 556%. On to `CCC(O)(/C=C/c1ccc(C(CC)(CC)c2ccc(OC[C@@H](O)CCC(=O)O)c(C)c2)cc1C)CC` [Example 1, (S)-5-(4-{1-ethyl-1-[4-((E)-3-ethyl-3-hydroxy-pent-1-enyl)-3-methyl-phenyl]-propyl}-2-methyl-phenoxy)-4-hydroxy-pentanoic acid], for which the “ECaC-2 mRNA induction activity” value turned out to be 36%. The figure for `CCC(CC)(c1ccc(C#CC(O)(C(F)(F)F)C(F)(F)F)c(C)c1)c1ccc(OC[C@@H](O)CCC(=O)O)c(C)c1` [Example 2, (S)-5-(4-{1-ethyl-1-[3-methyl-4-(4,4,4-trifluoro-3-hydroxy-3-trifluoromethyl-but-1-ynyl)-phenyl]-propyl}-2-methyl-phenoxy)-4-hydroxy-pentanoic acid] is 49%; for `CCC(CC)(c1ccc(C#CC(O)C(C)(C)C)c(C)c1)c1ccc(OC[C@@H](O)CCC(=O)O)c(C)c1` (stereo partly drawn) [Example 27, 5-(4-{1-ethyl-1-[4-(3-hydroxy-4,4-dimethyl-pent-1-ynyl)-3-methyl-phenyl]-propyl}-2-methyl-phenoxy)-4(S)-hydroxy-pentanoic acid] it is 114%. For `CCC(CC)(c1ccc(/C=C/C(O)C(C)(C)C)c(C)c1)c1ccc(OC[C@@H](O)CCC(=O)O)c(C)c1` (stereo partly drawn) [Example 28, 5-(4-{1-ethyl-1-[4-((E)-3-hydroxy-4,4-dimethyl-pent-1-enyl)-3-methyl-phenyl]-propyl}-2-methyl-phenoxy)-4(S)-hydroxy-pentanoic acid], the “ECaC-2 mRNA induction activity” value is 2093%.

As to `CCC(CC)(c1ccc(/C=C/C(O)(C(F)(F)F)C(F)(F)F)c(C)c1)c1ccc(OC[C@@H](O)CCC(=O)O)c(C)c1` [Example 30, (S)-5-(4-{1-ethyl-1-[3-methyl-4-((E)-4,4,4-trifluoro-3-hydroxy-3-trifluoromethyl-but-1-enyl)-phenyl]-propyl}-2-methyl-phenoxy)-4-hydroxy-pentanoic acid], the “ECaC-2 mRNA induction activity” value is listed as 1777%. The figure for `CCC(CC)(c1ccc(CCC(O)(C(F)(F)F)C(F)(F)F)c(C)c1)c1ccc(OC[C@@H](O)CCC(=O)O)c(C)c1` [Example 31, (S)-5-(4-{1-ethyl-1-[3-methyl-4-(4,4,4-trifluoro-3-hydroxy-3-trifluoromethyl-butyl)-phenyl]-propyl}-2-methyl-phenoxy)-4-hydroxy-pentanoic acid] is 161%; for `CCC(CC)(c1ccc(/C=C/C2(O)CCCC2)c(C)c1)c1ccc(OC[C@@H](O)CCC(=O)O)c(C)c1` [Example 35, (S)-5-[4-(1-ethyl-1-{4-[(E)-2-(1-hydroxy-cyclopentyl)-vinyl]-3-methyl-phenyl}-propyl)-2-methyl-phenoxy]-4-hydroxy-pentanoic acid] it is 538%. The figure for `CCC(CC)(c1ccc(/C=C/C2(O)CCCCC2)c(C)c1)c1ccc(OC[C@@H](O)CCC(=O)O)c(C)c1` [Example 37, (S)-5-[4-(1-ethyl-1-{4-[(E)-2-(1-hydroxy-cyclohexyl)-vinyl]-3-methyl-phenyl}-propyl)-2-methyl-phenoxy]-4-hydroxy-pentanoic acid] is 639%; for `CCC(O)(/C=C/c1ccc(C(CC)(CC)c2ccc(OC[C@H]3CCC(=O)O3)c(C)c2)cc1C)CC` [Example 44, (R)-5-(4-{1-ethyl-1-[4-((E)-3-ethyl-3-hydroxy-pent-1-enyl)-3-methyl-phenyl]-propyl}-2-methyl-phenoxymethyl)-dihydro-furan-2-one] it is 96%; for `CCC(CC)(c1ccc(/C=C/C(O)(C(F)(F)F)C(F)(F)F)c(C)c1)c1ccc(OC[C@H]2CCC(=O)O2)c(C)c1` [Example 48, (R)-5-(4-{1-ethyl-1-[3-methyl-4-((E)-4,4,4-trifluoro-3-hydroxy-3-trifluoromethyl-but-1-enyl)-phenyl]-propyl}-2-methyl-phenoxymethyl)-dihydro-furan-2-one] it is 519%. For `CCC(CC)(c1ccc(/C=C/C(O)(C(F)(F)F)C(F)(F)F)c(C)c1)c1ccc(OC[C@H](O)CCC(=O)O)c(C)c1` [Example 49, 5-(4-{1-ethyl-1-[3-methyl4-((E)4,4,4-trifluoro-3-hydroxy-3-trifluoromethyl-but-1-enyl)-phenyl]-propyl}-2-methyl-phenoxy)4(R)-hydroxy-pentanoic acid], the “ECaC-2 mRNA induction activity” value is 987%.

As to `CCC(CC)(c1ccc(/C=C/C(O)(C(F)(F)F)C(F)(F)F)c(C)c1)c1ccc(OC[C@@H](O)CC(=O)O)c(C)c1` [Example 52, (S)4-(4-{1-ethyl-1-[3-methyl-4-((E)A4,4,4-trifluoro-3-hydroxy-3-trifluoromethyl-but-1-enyl)-phenyl]-propyl}-2-methyl-phenoxy)-3-hydroxy-butyric acid], the “ECaC-2 mRNA induction activity” value is recorded as 1227%. Consider `CCC(CC)(c1ccc(/C=C/C(O)(C(F)(F)F)C(F)(F)F)c(C)c1)c1ccc(OC[C@H](O)CC(=O)O)c(C)c1` [Example 54, (R)-4-(4-{1-ethyl-1-[3-methyl4-((E)-4,4,4-trifluoro-3-hydroxy-3-trifluoromethyl-but-1-enyl)-phenyl]-propyl}-2-methyl-phenoxy)-3-hydroxy-butyric acid], for which the “ECaC-2 mRNA induction activity” value stood at 172%.

In the case of `CCC(CC)(c1ccc(/C=C/C(O)(C(F)(F)F)C(F)(F)F)c(C)c1)c1ccc(OC[C@@H]2CCCC(=O)O2)c(C)c1` [Example 55, (S)-6-(4-{1-ethyl-1-[3-methyl-4-((E)-4,4,4-trifluoro-3-hydroxy-3-trifluoromethyl-but-1-enyl)-phenyl]-propyl}-2-methyl-phenoxymethyl)-tetrahydro-pyran-2-one], the “ECaC-2 mRNA induction activity” value worked out at 662%. For `CCC(CC)(c1ccc(/C=C/C(O)(C(F)(F)F)C(F)(F)F)c(C)c1)c1ccc(OC[C@@H](O)CCCC(=O)O)c(C)c1` [Example 56, (S)-6-(4-{1-Ethyl-1-[3-methyl-4-((E)4,4,4-trifluoro-3-hydroxy-3-trifluoromethyl-but-1-enyl)-phenyl]-propyl}-2-methyl-phenoxy)-5-hydroxy-hexanoic acid], the “ECaC-2 mRNA induction activity” value turned out to be 276%. In the case of `CCC(CC)(c1ccc(C#CC(O)(C(F)(F)F)C(F)(F)F)c(C)c1)c1ccc(OC[C@@H]2CCCC(=O)O2)c(C)c1` [Example 57, (S)-6-(4-{1-ethyl-1-[3-methyl4-(4,4,4-trifluoro-3-hydroxy-3-trifluoromethyl-but-1-ynyl)-phenyl]-propyl}-2-methyl-phenoxymethyl)-tetrahydro-pyran-2-one], the “ECaC-2 mRNA induction activity” value turned out to be 24%. In the case of `CCC(CC)(c1ccc(C#CC(O)(C(F)(F)F)C(F)(F)F)c(C)c1)c1ccc(OC[C@H]2CCCC(=O)O2)c(C)c1` [Example 59, (R)-6-(4-{1-Ethyl-1-[3-methyl4-(4,4,4-trifluoro-3-hydroxy-3-trifluoromethyl-but-1-ynyl)-phenyl]-propyl}-2-methyl-phenoxymethyl)-tetrahydro-pyran-2-one], the “ECaC-2 mRNA induction activity” value was determined as 117%.

With `CCC(CC)(c1ccc(C#CC(O)(C(F)(F)F)C(F)(F)F)c(C)c1)c1ccc(OC[C@H](O)CCCC(=O)O)c(C)c1` [Example 60, (R)-6-(4-{1-ethyl-1-[3-methyl4-(4,4,4-trifluoro-3-hydroxy-3-trifluoromethyl-but-1-ynyl)-phenyl]-propyl}-2-methyl-phenoxy)-5-hydroxy-hexanoic acid], the “ECaC-2 mRNA induction activity” value was 235%.
